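How tested: cells in 96-well plates exposed to compound for 48 hours at five concentrations. The concentration for 50% growth inhibition is given as GI50. TGI denotes the concentration required for complete inhibition of growth.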
The compounds below were run on 786-0 renal (assay: inhibition of tumour cell growth, NCI panel, 48 h).

Row | SMILES | GI50 [µM] | TGI [µM]
1 | C=C1C(=O)O[C@H]2[C@H]1CC/C(COC(=O)/C=C\C(=O)NCc1ccc(Cn3c(=O)sn(-c4ccc(C#N)cc4)c3=O)cc1)=C\CC[C@@]1(C)O[C@@H]21 | 0.727 | 1.52
2 | COc1cc2c3c(n(CCCCl)c(=O)c2cc1OC)-c1ccccc1C3=O | 12.3 | > 100
3 | COc1cc(C2c3cc4c(cc3[C@@H](Nc3ccccc3)C3CO[C@@H](OC)[C@H]23)OCO4)cc(OC)c1O (stereo partly specified) |  | 15.4
4 | CCOC(=O)c1c(SC(=O)/C=C/c2ccccc2)n(-c2ccccc2)c(=S)n(-c2ccccc2)c1=O |  | > 100

What follows are compounds tested on A498 renal (assay: inhibition of tumour cell growth, NCI panel, 48 h).

Row | SMILES | GI50 [µM] | TGI [µM]
5 | C=C1C(=O)O[C@H]2[C@H]1CC/C(COC(=O)/C=C\C(=O)NCc1ccc(Cn3c(=O)sn(-c4ccc(C#N)cc4)c3=O)cc1)=C\CC[C@@]1(C)O[C@@H]21 | 0.769 | 1.55
6 | CCOC(=O)c1c(SC(=O)/C=C/c2ccccc2)n(-c2ccccc2)c(=S)n(-c2ccccc2)c1=O |  | > 100
7 | COC(=O)c1ccc2c(c1)n(Cc1ccc3ccccc3c1)c[n+]2Cc1ccc2ccccc2c1 | 2.23 | 6.49

What follows are compounds tested on A549 NSCLC (assay: inhibition of tumour cell growth, NCI panel, 48 h).

Row | SMILES | GI50 [µM] | TGI [µM]
8 | C=C1C(=O)O[C@H]2[C@H]1CC/C(COC(=O)/C=C\C(=O)NCc1ccc(Cn3c(=O)sn(-c4ccc(C#N)cc4)c3=O)cc1)=C\CC[C@@]1(C)O[C@@H]21 | 0.916 | 2.42
9 | COc1cc2c3c(n(CCCCl)c(=O)c2cc1OC)-c1ccccc1C3=O | > 100 | > 100
10 | COc1cc(C2c3cc4c(cc3[C@@H](Nc3ccccc3)C3CO[C@@H](OC)[C@H]23)OCO4)cc(OC)c1O (stereo partly specified) |  | 12.1
11 | CCOC(=O)c1c(SC(=O)/C=C/c2ccccc2)n(-c2ccccc2)c(=S)n(-c2ccccc2)c1=O |  | > 100
12 | COC(=O)c1ccc2c(c1)n(Cc1ccc3ccccc3c1)c[n+]2Cc1ccc2ccccc2c1 | 11.3 | 36.8

Each compound was assayed on ACHN renal (assay: inhibition of tumour cell growth, NCI panel, 48 h).

Row | SMILES | GI50 [µM] | TGI [µM]
13 | C=C1C(=O)O[C@H]2[C@H]1CC/C(COC(=O)/C=C\C(=O)NCc1ccc(Cn3c(=O)sn(-c4ccc(C#N)cc4)c3=O)cc1)=C\CC[C@@]1(C)O[C@@H]21 | 0.545 | 1.14
14 | COc1cc2c3c(n(CCCCl)c(=O)c2cc1OC)-c1ccccc1C3=O | 19.2 | > 100
15 | COc1cc(C2c3cc4c(cc3[C@@H](Nc3ccccc3)C3CO[C@@H](OC)[C@H]23)OCO4)cc(OC)c1O (stereo partly specified) |  | 10.6
16 | CCOC(=O)c1c(SC(=O)/C=C/c2ccccc2)n(-c2ccccc2)c(=S)n(-c2ccccc2)c1=O |  | > 100
17 | COC(=O)c1ccc2c(c1)n(Cc1ccc3ccccc3c1)c[n+]2Cc1ccc2ccccc2c1 | 10.2 | 29.8

These compounds were tested on BT-549 breast (assay: inhibition of tumour cell growth, NCI panel, 48 h).

Row | SMILES | GI50 [µM] | TGI [µM]
18 | C=C1C(=O)O[C@H]2[C@H]1CC/C(COC(=O)/C=C\C(=O)NCc1ccc(Cn3c(=O)sn(-c4ccc(C#N)cc4)c3=O)cc1)=C\CC[C@@]1(C)O[C@@H]21 | 0.697 | 1.65
19 | COc1cc2c3c(n(CCCCl)c(=O)c2cc1OC)-c1ccccc1C3=O | > 100 | > 100

These compounds were tested on CAKI-1 renal (assay: inhibition of tumour cell growth, NCI panel, 48 h).

Row | SMILES | GI50 [µM] | TGI [µM]
20 | C=C1C(=O)O[C@H]2[C@H]1CC/C(COC(=O)/C=C\C(=O)NCc1ccc(Cn3c(=O)sn(-c4ccc(C#N)cc4)c3=O)cc1)=C\CC[C@@]1(C)O[C@@H]21 | 0.354 | 1.08
21 | COc1cc2c3c(n(CCCCl)c(=O)c2cc1OC)-c1ccccc1C3=O | 1.44 | 7.6
22 | CCOC(=O)c1c(SC(=O)/C=C/c2ccccc2)n(-c2ccccc2)c(=S)n(-c2ccccc2)c1=O |  | > 100

What follows are compounds tested on CCRF-CEM leukemia (assay: inhibition of tumour cell growth, NCI panel, 48 h).

Row | SMILES | GI50 [µM] | TGI [µM]
23 | C=C1C(=O)O[C@H]2[C@H]1CC/C(COC(=O)/C=C\C(=O)NCc1ccc(Cn3c(=O)sn(-c4ccc(C#N)cc4)c3=O)cc1)=C\CC[C@@]1(C)O[C@@H]21 | 0.2 | 17.9
24 | COc1cc2c3c(n(CCCCl)c(=O)c2cc1OC)-c1ccccc1C3=O | 0.71 | > 100
25 | COc1cc(C2c3cc4c(cc3[C@@H](Nc3ccccc3)C3CO[C@@H](OC)[C@H]23)OCO4)cc(OC)c1O (stereo partly specified) |  | 11.3
26 | CCOC(=O)c1c(SC(=O)/C=C/c2ccccc2)n(-c2ccccc2)c(=S)n(-c2ccccc2)c1=O |  | > 100
27 | COC(=O)c1ccc2c(c1)n(Cc1ccc3ccccc3c1)c[n+]2Cc1ccc2ccccc2c1 | 1.79 | 4.46

The compounds below were run on COLO 205 colon (assay: inhibition of tumour cell growth, NCI panel, 48 h).

Row | SMILES | GI50 [µM] | TGI [µM]
28 | C=C1C(=O)O[C@H]2[C@H]1CC/C(COC(=O)/C=C\C(=O)NCc1ccc(Cn3c(=O)sn(-c4ccc(C#N)cc4)c3=O)cc1)=C\CC[C@@]1(C)O[C@@H]21 | 0.541 | 1.41
29 | COc1cc(C2c3cc4c(cc3[C@@H](Nc3ccccc3)C3CO[C@@H](OC)[C@H]23)OCO4)cc(OC)c1O (stereo partly specified) |  | > 25
30 | CCOC(=O)c1c(SC(=O)/C=C/c2ccccc2)n(-c2ccccc2)c(=S)n(-c2ccccc2)c1=O |  | > 100

The compounds below were run on DU-145 prostate (assay: inhibition of tumour cell growth, NCI panel, 48 h).

Row | SMILES | GI50 [µM] | TGI [µM]
31 | C=C1C(=O)O[C@H]2[C@H]1CC/C(COC(=O)/C=C\C(=O)NCc1ccc(Cn3c(=O)sn(-c4ccc(C#N)cc4)c3=O)cc1)=C\CC[C@@]1(C)O[C@@H]21 | 0.725 | 1.4
32 | COc1cc2c3c(n(CCCCl)c(=O)c2cc1OC)-c1ccccc1C3=O | > 100 | > 100
33 | CCOC(=O)c1c(SC(=O)/C=C/c2ccccc2)n(-c2ccccc2)c(=S)n(-c2ccccc2)c1=O |  | > 100
34 | CC(=O)OC[C@]12CC[C@H]3[C@@H](C[C@H]4O[C@]45CC=CC(=O)[C@]35C)[C@]1(O)CC[C@@]2(O)[C@@](C)(O)C1CC(C)=C(C)C(=O)O1 (stereo partly specified) |  | > 32.8
35 | COC(=O)c1ccc2c(c1)n(Cc1ccc3ccccc3c1)c[n+]2Cc1ccc2ccccc2c1 | 1.77 | 3.52

The compounds below were run on EKVX NSCLC (assay: inhibition of tumour cell growth, NCI panel, 48 h).

Row | SMILES | GI50 [µM] | TGI [µM]
36 | C=C1C(=O)O[C@H]2[C@H]1CC/C(COC(=O)/C=C\C(=O)NCc1ccc(Cn3c(=O)sn(-c4ccc(C#N)cc4)c3=O)cc1)=C\CC[C@@]1(C)O[C@@H]21 | 0.797 | 1.57
37 | COc1cc2c3c(n(CCCCl)c(=O)c2cc1OC)-c1ccccc1C3=O | > 100 | > 100
38 | COc1cc(C2c3cc4c(cc3[C@@H](Nc3ccccc3)C3CO[C@@H](OC)[C@H]23)OCO4)cc(OC)c1O (stereo partly specified) |  | > 25
39 | CCOC(=O)c1c(SC(=O)/C=C/c2ccccc2)n(-c2ccccc2)c(=S)n(-c2ccccc2)c1=O |  | > 100
40 | CC(=O)OC[C@]12CC[C@H]3[C@@H](C[C@H]4O[C@]45CC=CC(=O)[C@]35C)[C@]1(O)CC[C@@]2(O)[C@@](C)(O)C1CC(C)=C(C)C(=O)O1 (stereo partly specified) |  | > 30.4
41 | COC(=O)c1ccc2c(c1)n(Cc1ccc3ccccc3c1)c[n+]2Cc1ccc2ccccc2c1 | 3.01 | 20.4

The compounds below were run on HCC-2998 colon (assay: inhibition of tumour cell growth, NCI panel, 48 h).

Row | SMILES | GI50 [µM] | TGI [µM]
42 | C=C1C(=O)O[C@H]2[C@H]1CC/C(COC(=O)/C=C\C(=O)NCc1ccc(Cn3c(=O)sn(-c4ccc(C#N)cc4)c3=O)cc1)=C\CC[C@@]1(C)O[C@@H]21 | 0.901 | 1.76
43 | COc1cc2c3c(n(CCCCl)c(=O)c2cc1OC)-c1ccccc1C3=O | > 100 | > 100
44 | COc1cc(C2c3cc4c(cc3[C@@H](Nc3ccccc3)C3CO[C@@H](OC)[C@H]23)OCO4)cc(OC)c1O (stereo partly specified) |  | > 25
45 | CCOC(=O)c1c(SC(=O)/C=C/c2ccccc2)n(-c2ccccc2)c(=S)n(-c2ccccc2)c1=O |  | > 100

These compounds were tested on HCT-116 colon (assay: inhibition of tumour cell growth, NCI panel, 48 h).

Row | SMILES | GI50 [µM] | TGI [µM]
46 | C=C1C(=O)O[C@H]2[C@H]1CC/C(COC(=O)/C=C\C(=O)NCc1ccc(Cn3c(=O)sn(-c4ccc(C#N)cc4)c3=O)cc1)=C\CC[C@@]1(C)O[C@@H]21 | 0.218 | 0.956
47 | COc1cc2c3c(n(CCCCl)c(=O)c2cc1OC)-c1ccccc1C3=O | 2.46 | > 100
48 | COc1cc(C2c3cc4c(cc3[C@@H](Nc3ccccc3)C3CO[C@@H](OC)[C@H]23)OCO4)cc(OC)c1O (stereo partly specified) |  | > 25
49 | CCOC(=O)c1c(SC(=O)/C=C/c2ccccc2)n(-c2ccccc2)c(=S)n(-c2ccccc2)c1=O |  | > 100

What follows are compounds tested on HCT-15 colon (assay: inhibition of tumour cell growth, NCI panel, 48 h).

Row | SMILES | GI50 [µM] | TGI [µM]
50 | C=C1C(=O)O[C@H]2[C@H]1CC/C(COC(=O)/C=C\C(=O)NCc1ccc(Cn3c(=O)sn(-c4ccc(C#N)cc4)c3=O)cc1)=C\CC[C@@]1(C)O[C@@H]21 | 0.505 | 1.95
51 | COc1cc2c3c(n(CCCCl)c(=O)c2cc1OC)-c1ccccc1C3=O | > 100 | > 100
52 | COc1cc(C2c3cc4c(cc3[C@@H](Nc3ccccc3)C3CO[C@@H](OC)[C@H]23)OCO4)cc(OC)c1O (stereo partly specified) |  | > 25
53 | CCOC(=O)c1c(SC(=O)/C=C/c2ccccc2)n(-c2ccccc2)c(=S)n(-c2ccccc2)c1=O |  | > 100
54 | CC(=O)OC[C@]12CC[C@H]3[C@@H](C[C@H]4O[C@]45CC=CC(=O)[C@]35C)[C@]1(O)CC[C@@]2(O)[C@@](C)(O)C1CC(C)=C(C)C(=O)O1 (stereo partly specified) |  | > 33.6
55 | COC(=O)c1ccc2c(c1)n(Cc1ccc3ccccc3c1)c[n+]2Cc1ccc2ccccc2c1 | 4.48 | 26.8

Each compound was assayed on HL-60(TB) leukemia (assay: inhibition of tumour cell growth, NCI panel, 48 h).

Row | SMILES | GI50 [µM] | TGI [µM]
56 | C=C1C(=O)O[C@H]2[C@H]1CC/C(COC(=O)/C=C\C(=O)NCc1ccc(Cn3c(=O)sn(-c4ccc(C#N)cc4)c3=O)cc1)=C\CC[C@@]1(C)O[C@@H]21 | 0.961 | 3.49
57 | COc1cc(C2c3cc4c(cc3[C@@H](Nc3ccccc3)C3CO[C@@H](OC)[C@H]23)OCO4)cc(OC)c1O (stereo partly specified) |  | 8.24

What follows are compounds tested on HOP-62 NSCLC (assay: inhibition of tumour cell growth, NCI panel, 48 h).

Row | SMILES | GI50 [µM] | TGI [µM]
58 | C=C1C(=O)O[C@H]2[C@H]1CC/C(COC(=O)/C=C\C(=O)NCc1ccc(Cn3c(=O)sn(-c4ccc(C#N)cc4)c3=O)cc1)=C\CC[C@@]1(C)O[C@@H]21 | 2.52 | 9
